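Results reflect a 48-hour exposure of cells in 96-well plates to compound at five concentrations. GI50 is the concentration that inhibits growth by half. TGI marks complete inhibition of growth.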

Common to all, as to assay: NCI anticancer screen, dose series, 48 h
Assay [1] has as its system DU-145 prostate.
Assay [2] has as its system HOP-92 NSCLC.
For assay [3], the system named is HS 578T breast.
Assay [4] has as its system IGROV1 ovarian.
The test system of assay [5] is KM12 colon.
Assay [6] concerns SK-MEL-28 melanoma.
For assay [7], the system named is SK-MEL-5 melanoma.
For assay [8], the system named is SK-OV-3 ovarian.
Assay [9] has as its system U251 CNS.
In assay [10] the test system is UO-31 renal.

With `CC1(C)CCCCCC(C)(CCCO)C1=O` (stereo not given), the TGI in [1], in [2], in assay [3], in assay [4], in assay [5] and in assay [6] was more than 100 µM throughout. For the same compound, the TGI in assay [7], in assay [8], in assay [9] and in assay [10] was more than 100 µM in each case.
Regarding `CC1CN=C(c2cccc(-c3nc(-c4cccc(C5=NCC(C)N5)c4)nc(N(C)C)n3)c2)N1` (stereo not given), the TGI stood at 7.14 µM in [1]; 20.3 µM in assay [2]; 17.1 µM in assay [3]; 18.4 µM in [4]; 7.72 µM in assay [5]; 13.2 µM in assay [6]. The TGI in assay [7] was 7.93 µM; in assay [8] it was 4.61 µM; in assay [9] it was 2.13 µM; in [10] it was 13.4 µM.
Regarding `COc1cc(NC=C2C(=O)OC(C)(C)OC2=O)c(OC)c(C)c1OC`, the TGI in assay [1], in assay [2], in assay [3], in assay [4], in assay [5] and in [6] was more than 100 µM throughout. For the same compound, the TGI in assay [7], in assay [8], in [9] and in assay [10] was more than 100 µM throughout.
Regarding `CC(C)/C(=N\[N+](C)(C)C)c1ccccc1`, the TGI in [1], in assay [2], in assay [3], in [4], in assay [5] and in assay [6] was more than 100 µM each time. The TGI in assay [7], in assay [8], in [9] and in assay [10] was more than 100 µM each time.
With `C=CCCCCOC1C=CC(O)C(CO)O1` (stereo not given), the TGI in assay [1], in [2], in assay [3], in assay [4], in assay [5] and in [6] was more than 100 µM in each case. Besides, the TGI in assay [7], in assay [8], in assay [9] and in assay [10] was more than 100 µM in each case.
With `COC(=O)/C=C\C(C#N)(C#N)N=Cc1sccc1C`, the TGI in assay [1] came out at 13.4 µM; in assay [2], 3.9 µM; in assay [3], 37.1 µM; in assay [4], 29 µM; in [5], 30.3 µM; in assay [6] it was 20.1 µM. The TGI in assay [7] is 4.78 µM; in assay [8], 34.1 µM; in assay [9], more than 40.6 µM; in assay [10], 3.51 µM.
Turning to `CCOC(=O)CN1CC(C2=C(O)CN(CC(=O)OCC)C2=O)=CC1=O`, the TGI in assay [1], in assay [2], in assay [3], in assay [4], in assay [5] and in assay [6] was more than 100 µM in each case. The TGI in [7], in assay [8], in assay [9] and in assay [10] was more than 100 µM each time.
Consider `Cc1ccc(S(=O)(=O)N/N=C2/CC3CCC4CC2CC34)cc1` (stereo not given), for which the TGI in assay [1], in assay [2], in assay [3], in [4], in [5] and in assay [6] was more than 100 µM each time. The TGI in assay [7], in [8], in assay [9] and in assay [10] was more than 100 µM each time.
Turning to `O=C(Nc1sccc1S(=O)(=O)c1ccccc1)c1ccccc1`, the TGI in assay [1], in [2], in [3], in [4], in assay [5] and in assay [6] was more than 100 µM each time. The TGI in assay [7], in assay [8], in assay [9] and in assay [10] was more than 100 µM each time.
As for `O=C1CCCCC/C1=C\c1ccccc1`, the TGI in [1], in assay [2], in assay [3], in assay [4], in assay [5] and in assay [6] was more than 100 µM each time. Moreover, the TGI in assay [7], in assay [8], in assay [9] and in [10] was more than 100 µM throughout.
Turning to `Cc1cccc2c(N)c3cccc(C(=O)NCC[N+]4(Cc5ccc([N+](=O)[O-])cc5)CCOCC4)c3nc12`, the TGI in assay [1] is more than 100 µM; in assay [2], 71.8 µM; in assay [3], more than 77 µM; in assay [4], more than 100 µM; in [5], more than 100 µM; in assay [6], more than 100 µM. The TGI in assay [7], in assay [8], in assay [9] and in assay [10] was more than 100 µM in each case.
For the compound `ClCc1cccc(CSc2ncnc3c2ncn3Cc2cccc(CCl)c2)c1`, the GI50 in assay [1] was 1.85 µM; in assay [2], 1.64 µM; in assay [3], 5.39 µM; in assay [4] it was 1.95 µM; in assay [5], 1.88 µM; in [6], 1.59 µM. In addition, the GI50 in [7] was 1.56 µM; in assay [8] it was 2.3 µM; in assay [9] it was 1.59 µM; in [10], 1.74 µM. Also, the TGI in assay [1] is 3.3 µM; in assay [2], 3.32 µM; in [3] it was more than 100 µM; in assay [4], 4.51 µM; in [5], 3.46 µM; in assay [6], 3.08 µM. In addition, the TGI was 2.9 µM in [7], 4.97 µM in [8], 3.01 µM in [9] and 3.93 µM in assay [10].
Consider `CSc1c(CC(=O)Nc2ccc(Cl)cc2)n(Cc2ccccc2)c2ccccc12`, for which the TGI was more than 100 µM in [1]; 42.8 µM in assay [2]; 69.4 µM in assay [3]; more than 100 µM in assay [4]; more than 100 µM in assay [5]; more than 100 µM in assay [6]. Besides, the TGI was more than 100 µM in [7], more than 100 µM in [8], 25 µM in assay [9] and more than 100 µM in assay [10].
Regarding `CC(C)(C)OC(=O)CN1CCN(CC(=O)N2CCN(C(=O)OCc3ccccc3)CC2)CCN(CC(=O)OC(C)(C)C)CCN(CC(=O)N2CCN(C(=O)OCc3ccccc3)CC2)CC1`, the TGI in [1] worked out at 20.1 µM; in assay [2], 11.4 µM; in assay [3], 5.67 µM; in [4], 2.65 µM; in assay [5] it was 3.06 µM; in [6], 16.2 µM. For the same compound, the TGI in [7] came out at 3.92 µM; in assay [8], 16.5 µM; in assay [9], 9.51 µM; in assay [10], 25.5 µM.
With `Cc1cccc(C)c1Nc1nc(C)c(C(=O)CC(=O)C(=O)Nc2c(C(C)C)cccc2C(C)C)s1`, the TGI in [1], in assay [2], in assay [3], in assay [4], in [5] and in assay [6] was more than 100 µM throughout. Further, the TGI in [7], in [8], in assay [9] and in [10] was more than 100 µM in each case.
Regarding `O=S(=O)(O)c1ccc2c(N=Nc3ccc(Cl)cc3)c(O)ccc2c1`, the TGI in [1], in assay [2], in assay [3], in assay [4], in assay [5] and in [6] was more than 100 µM throughout. The TGI in [7], in assay [8], in [9] and in assay [10] was more than 100 µM each time.
On to `C=CCN(c1cc(OC)c2[nH]c(C(=O)OCC)c(C)c2c1[N+](=O)[O-])S(C)(=O)=O`, for which the TGI in [1] was more than 100 µM; in [2], 72.4 µM; in assay [3], 58.7 µM; in [4], more than 100 µM; in assay [5], 66.2 µM; in [6], more than 100 µM. Also, the TGI in [7] was 44.8 µM; in assay [8], more than 100 µM; in [9], 31.6 µM; in [10], 74.8 µM.
Regarding `CO[C@@H]1C[C@H](OC(N)=O)[C@@H]2C=C[C@@H]3/C=C(C)/C=C/[C@@H](C)[C@H](/C(C)=C/[C@@H](C)NC(C)=O)OC(=O)/C=C/C=C(C)\C=C\[C@]3(C)[C@@H]2C1`, the TGI came to 2.43 µM in [1]; 0.148 µM in assay [2]; 0.0455 µM in [3]; 0.471 µM in assay [4]; 0.163 µM in [5]; 0.458 µM in assay [6]. The TGI in assay [7] worked out at 0.604 µM; in assay [8] it was 0.192 µM; in assay [9], 0.375 µM; in [10] it was 0.111 µM.
On to `CSCCCNC(=O)c1csc(-c2csc(CCNC(=O)CNC(=O)CNC(=O)OC(C)(C)C)n2)n1`, for which the TGI in [1], in assay [2], in assay [3], in assay [4], in assay [5] and in assay [6] was more than 100 µM throughout. Also, the TGI in assay [7], in assay [8], in assay [9] and in [10] was more than 100 µM each time.
For the compound `COc1ccc2c3c1OC1C34CCN(C)C(C2)C4=CC(I)C1(OC)OC` (stereo not given), the TGI was found to be 22.6 µM in assay [1]; 24.5 µM in assay [2]; 79.7 µM in assay [3]; 22.2 µM in assay [4]; 28.3 µM in [5]; 25.9 µM in assay [6]. Further, the TGI in [7] turned out to be 25.6 µM; in assay [8], 28.9 µM; in assay [9], 29.8 µM; in assay [10], 28.5 µM.
Regarding `CC[P+]1(c2ccccc2)[C@@H](C)CC[C@@H]1C`, the TGI in [1], in assay [2], in assay [3], in assay [4], in [5] and in assay [6] was more than 100 µM each time. The TGI in assay [7], in [8], in assay [9] and in [10] was more than 100 µM in each case.
